Where “and” joins values, the source holds several entries; their conditions need not be identical. Equal values may be shown once. Inconclusive results and toxic doses are left out.

The results in this text go back to PubChem BioAssay AID276 (DTP/NCI, 2004).

The assay has as its system B6C3F1 mice, Lewis lung carcinoma iv, survival T/C. The experiment in a line: NCI In Vivo Anticancer Drug Screen. Data for tumor model Lewis Lung Carcinoma (intravenous) in B6C3F1 mice. The following applies: endpoint: median survival time, higher = longer survival. In short, it runs like this:
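Read-out is survival, expressed as the treated-group measurement over the vehicle control-group measurement. Animals bore a transplantable tumor and were given compound.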

Setting [1] is: dose: 25.0 mg/kg/injection, schedule: Q01DX009 (ip), vehicle: saline.
The mark [2] stands for this setting: dose: 50.0 mg/kg/injection, schedule: Q01DX009 (ip), vehicle: saline.
Setting [3] is: dose: 100.0 mg/kg/injection, schedule: Q01DX009 (ip), vehicle: saline.
Where [4] appears, read: dose: 200.0 mg/kg/injection, schedule: Q01DX009 (ip), vehicle: saline.
The mark [5] stands for this setting: dose: 400.0 mg/kg/injection, schedule: Q01DX009 (ip), vehicle: saline.
Setting [6] is: dose: 25.0 mg/kg/injection, schedule: Q01DX009 (ip), vehicle: Klucel (hydroxypropylcellulose) (HPC).
Setting [7] is: dose: 50.0 mg/kg/injection, schedule: Q01DX009 (ip), vehicle: Klucel (hydroxypropylcellulose) (HPC).
Setting [8] is: dose: 100.0 mg/kg/injection, schedule: Q01DX009 (ip), vehicle: Klucel (hydroxypropylcellulose) (HPC).
[9] abbreviates: dose: 200.0 mg/kg/injection, schedule: Q01DX009 (ip), vehicle: Klucel (hydroxypropylcellulose) (HPC).
[10] abbreviates: dose: 400.0 mg/kg/injection, schedule: Q01DX009 (ip), vehicle: Klucel (hydroxypropylcellulose) (HPC).
Where [11] appears, read: dose: 12.5 mg/kg/injection, schedule: Q01DX009 (ip), vehicle: saline with Tween-80.
The mark [12] stands for this setting: dose: 25.0 mg/kg/injection, schedule: Q01DX009 (ip), vehicle: saline with Tween-80.
[13] abbreviates: dose: 50.0 mg/kg/injection, schedule: Q01DX009 (ip), vehicle: saline with Tween-80.
[14] abbreviates: dose: 100.0 mg/kg/injection, schedule: Q01DX009 (ip), vehicle: saline with Tween-80.
Where [15] appears, read: dose: 200.0 mg/kg/injection, schedule: Q01DX009 (ip), vehicle: saline with Tween-80.
Setting [16] is: dose: 400.0 mg/kg/injection, schedule: Q01DX009 (ip), vehicle: saline with Tween-80.
The mark [17] stands for this setting: dose: 12.5 mg/kg/injection, schedule: Q01DX009 (ip), vehicle: saline.
Setting [18] is: dose: 6.25 mg/kg/injection, schedule: Q01DX009 (ip), vehicle: saline.

Regarding `O=c1ncccn1[C@@H]1O[C@H](CO)[C@H](O)C1O` (stereo partly specified), the T/C under setting [1] is 92 % of control and 96 % of control; the T/C under setting [2] is 88 % of control and 101 % of control; the T/C under setting [3] was 105 % of control; the T/C under setting [4] was 108 % of control and 119 % of control; the T/C under setting [5] was 97 % of control and 116 % of control.

With `Oc1c(Cl)cc(Cl)cc1C=NCCSc1ccc(Cl)cc1`, the T/C is 94 % of control and 105 % of control under setting [6]; 98 % of control and 101 % of control under setting [7]; 97 % of control and 101 % of control under setting [8]; 97 % of control and 105 % of control under setting [9]; 101 % of control under setting [10].

On to `COc1cccc(C2NC(=O)c3c(n[nH]c3N)S2)c1O` (stereo unspecified), for which the T/C was 114 % of control under setting [11]; 102 % of control under setting [12]; 122 % of control under setting [13]; 99 % of control under setting [14]; 109 % of control under setting [15].

In the case of `Nc1nc2c(C(=O)N3CCCC3)nnn2c2ccccc12`, the T/C by setting is: (dose: 6.25 mg/kg/injection, schedule: Q01DX009 (ip), vehicle: saline with Tween-80) 100 % of control; under setting [11], 99 % of control; under setting [12], 100 % of control; under setting [13], 107 % of control; under setting [14], 99 % of control.

`C[Si](C)(CCl)N[Si](C)(C)CCl`: the T/C by setting is: under setting [12], 104 % of control; under setting [13], 99 % of control; under setting [14], 107 % of control; under setting [16], 105 % of control.

Regarding `CCCCCn1c(C)cc(/C=C\c2ccc3cc(C)ccc3[n+]2C)c1C`, the T/C was 107 % of control (dose: 37.5 micrograms/kg/injection, schedule: Q01DX009 (ip), vehicle: Klucel (hydroxypropylcellulose) (HPC)); 109 % of control (dose: 75.0 micrograms/kg/injection, schedule: Q01DX009 (ip), vehicle: Klucel (hydroxypropylcellulose) (HPC)); 104 % of control (dose: 150.0 micrograms/kg/injection, schedule: Q01DX009 (ip), vehicle: Klucel (hydroxypropylcellulose) (HPC)); 97 % of control (dose: 300.0 micrograms/kg/injection, schedule: Q01DX009 (ip), vehicle: Klucel (hydroxypropylcellulose) (HPC)).

Turning to `COC(=O)Nc1nc2ccc(SC)cc2c(=O)[nH]1`, the T/C by setting is: under setting [6], 99 % of control; under setting [7], 110 % of control; under setting [8], 100 % of control; under setting [9], 110 % of control.

Consider `Cc1oc2c(C)c3oc(=O)cc(C)c3cc2c1CCl`, for which the T/C reads like this: under setting [11], 103 % of control; under setting [12], 101 % of control.

As to `Cc1ncc([N+](=O)[O-])n1CCSC(N)=O`, the T/C by setting is: under setting [17], 107 % of control; under setting [1], 102 % of control; under setting [2], 110 % of control; under setting [3], 95 % of control; under setting [4], 106 % of control; under setting [5], 97 % of control.

Turning to `COc1ccc(C(=O)C(CN(C)C)CN(C)C)cc1`, the T/C runs as follows: (dose: 1.56 mg/kg/injection, schedule: Q01DX009 (ip), vehicle: saline) 96 % of control; (dose: 3.12 mg/kg/injection, schedule: Q01DX009 (ip), vehicle: saline) 102 % of control; under setting [18], 102 % of control; under setting [17], 105 % of control; under setting [1], 105 % of control.

In the case of `CC(=O)CC(=O)CCC(=O)O`, the T/C is 98 % of control under setting [1], 103 % of control under setting [2], 102 % of control under setting [3] and 105 % of control under setting [4].

For the compound `CC(=O)C1=C(O)C2(O)C(=O)c3c(c(C)c4ccc(C)c(O)c4c3O)CC2C(N)C1=O` (stereo unspecified), the T/C by setting is: (dose: 3.75 mg/kg/injection, schedule: Q01DX009 (ip), vehicle: saline + alcohol) 95 % of control and 105 % of control; (dose: 7.3 mg/kg/injection, schedule: Q01DX009 (ip), vehicle: saline + alcohol) 102 % of control; (dose: 7.5 mg/kg/injection, schedule: Q01DX009 (ip), vehicle: saline + alcohol) 95 % of control; (dose: 15.0 mg/kg/injection, schedule: Q01DX009 (ip), vehicle: saline + alcohol) 102 % of control and 107 % of control; (dose: 30.0 mg/kg/injection, schedule: Q01DX009 (ip), vehicle: saline + alcohol) 98 % of control and 107 % of control; (dose: 60.0 mg/kg/injection, schedule: Q01DX009 (ip), vehicle: saline + alcohol) 102 % of control and 110 % of control. For the same compound, the T/C (dose: 120.0 mg/kg/injection, schedule: Q01DX009 (ip), vehicle: saline + alcohol) is 112 % of control.

For `Nc1nc(N)c2cc(S(=O)(=O)c3ccccc3)ccc2n1`, the T/C is 98 % of control under setting [12], 98 % of control under setting [13] and 99 % of control under setting [14].

With `CC(=O)Nc1cscc1NC(C)=O`, the T/C runs as follows: under setting [12], 103 % of control; under setting [13], 101 % of control and 106 % of control; under setting [14], 98 % of control; under setting [15], 94 % of control and 108 % of control; under setting [16], 112 % of control and 88 % of control.

Regarding `CSc1ncnc2c1ncn2C1OC(CO)C(O)C1O` (stereo unspecified), the T/C (dose: 3.12 mg/kg/injection, schedule: Q01DX009 (ip), vehicle: saline + alcohol) is 96 % of control; the T/C (dose: 6.25 mg/kg/injection, schedule: Q01DX009 (ip), vehicle: saline + alcohol) is 97 % of control; the T/C (dose: 12.5 mg/kg/injection, schedule: Q01DX009 (ip), vehicle: saline + alcohol) is 100 % of control; the T/C (dose: 25.0 mg/kg/injection, schedule: Q01DX009 (ip), vehicle: saline + alcohol) was 105 % of control; the T/C (dose: 50.0 mg/kg/injection, schedule: Q01DX009 (ip), vehicle: saline + alcohol) was 117 % of control.

On to `O=C(/C=C(\Cl)C(=O)NO)NO`, for which the T/C reads like this: under setting [18], 115 % of control; under setting [17], 112 % of control; under setting [2], 110 % of control; under setting [3], 104 % of control.

As to `O=C(O)C1(NO)CCCCC1`, the T/C is 95 % of control and 106 % of control (dose: 12.5 mg/kg/injection, schedule: Q01DX009 (ip), vehicle: Klucel (hydroxypropylcellulose) (HPC)); 101 % of control and 106 % of control under setting [6]; 100 % of control and 101 % of control under setting [7]; 102 % of control and 105 % of control under setting [8]; 95 % of control and 108 % of control under setting [9]; 97 % of control and 109 % of control under setting [10].

Take `CC(C)CCC(=O)c1ccoc1`: the T/C runs as follows: (dose: 0.12 mg/kg/injection, schedule: Q03HX027 (ip), vehicle: saline with Tween-80) 99 % of control; (dose: 0.25 mg/kg/injection, schedule: Q03HX027 (ip), vehicle: saline with Tween-80) 97 % of control; (dose: 0.5 mg/kg/injection, schedule: Q03HX027 (ip), vehicle: saline with Tween-80) 109 % of control; (dose: 1.0 mg/kg/injection, schedule: Q03HX027 (ip), vehicle: saline with Tween-80) 117 % of control.

On to `O=NN(CCCl)C(=O)NC1CCCCC1`, for which the T/C (dose: 1.0 mg/kg/injection, schedule: Q01DX009 (ip), vehicle: Klucel (hydroxypropylcellulose) (HPC)) was 98 % of control; the T/C (dose: 2.0 mg/kg/injection, schedule: Q01DX009 (ip), vehicle: Klucel (hydroxypropylcellulose) (HPC)) was 112 % of control and 120 % of control; the T/C (dose: 2.0 mg/kg/injection, schedule: Q01DX009 (ip), vehicle: other) is 108 % of control; the T/C (dose: 4.0 mg/kg/injection, schedule: Q01DX009 (ip), vehicle: other) is 100 % of control; the T/C (dose: 8.0 mg/kg/injection, schedule: Q01DX009 (ip), vehicle: Klucel (hydroxypropylcellulose) (HPC)) is 295 % of control and 314 % of control; the T/C (dose: 8.0 mg/kg/injection, schedule: Q01DX009 (ip), vehicle: other) is 100 % of control. For the same compound, the T/C (dose: 16.0 mg/kg/injection, schedule: Q01DX009 (ip), vehicle: other) is 119 % of control and the T/C (dose: 32.0 mg/kg/injection, schedule: Q01DX009 (ip), vehicle: other) is 166 % of control.
